Test results from patent US9738634B2, “Heterocyclic amide compound and herbicide” (SYNGENTA PARTICIPATIONS AG, priority 2013, dated 2017).

Legend:
Assay type in all cases: in vivo
barnyard grass [1] = test: Test Example 1: weedkilling efficacy, preemergent weed treatment in the submerged state; A: barnyard grass; conditions: treatment dosage 252 g/ha
Procedure, shortened: (§1)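 Emulsion diluted with water to the specified per-hectare dosage is applied onto flood water (4 cm) over alluvial soil on the sowing day, with barnyard grass, bulrush and pondweed seeded and rice (2.5-leaf) transplanted; plants grow at 25–30 °C and are rated at 3 weeks.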

bulrush [2] = test: Test Example 1: weedkilling efficacy, preemergent weed treatment in the submerged state; B: bulrush; conditions: treatment dosage 252 g/ha
Procedure, shortened: as §1

oval-leafed pondweed [3] = test: Test Example 1: weedkilling efficacy, preemergent weed treatment in the submerged state; C: oval-leafed pondweed; conditions: treatment dosage 252 g/ha
Procedure, shortened: as §1

transplanted rice = test: Test Example 1: preemergent weed treatment in the submerged state, effect on crop; a: transplanted rice; conditions: treatment dosage 252 g/ha
Procedure, shortened: as §1

barnyard grass [4] = test: Test Example 2: weedkilling efficacy, growth period weed treatment in the submerged state; A: barnyard grass; conditions: treatment dosage 252 g/ha
Procedure, shortened: (§2)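 First, alluvial soil in pots is flooded to 4 cm and mixed seed is sown. Next, plants grow in a greenhouse at 25 to 30° C until the 1-2 leaf stage. Then diluted emulsion is applied onto the water surface at the given g/ha rate, and injury is assessed after 3 weeks.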

bulrush [5] = test: Test Example 2: weedkilling efficacy, growth period weed treatment in the submerged state; B: bulrush; conditions: treatment dosage 252 g/ha
Procedure, shortened: as §2

oval-leafed pondweed [6] = test: Test Example 2: weedkilling efficacy, growth period weed treatment in the submerged state; C: oval-leafed pondweed; conditions: treatment dosage 252 g/ha
Procedure, shortened: as §2

crabgrass [7] = test: Test Example 3: weedkilling efficacy through soil treatment; D: crabgrass; conditions: treatment dosage 315 g/ha
Procedure, shortened: (§3)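 Crop and weed responses were judged three weeks after a uniform surface spray of the water-diluted emulsion at the given g/ha rate. Seeds sat beneath about 1.5 cm of sterilized diluvial soil, and boxes stood in a greenhouse at 25 to 30° C.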

green foxtail [8] = test: Test Example 3: weedkilling efficacy through soil treatment; E: green foxtail; conditions: treatment dosage 315 g/ha
Procedure, shortened: as §3

wild oat = test: Test Example 3: weedkilling efficacy through soil treatment; G: wild oat; conditions: treatment dosage 315 g/ha
Procedure, shortened: as §3

black-grass [9] = test: Test Example 3: weedkilling efficacy through soil treatment; H: black-grass; conditions: treatment dosage 315 g/ha
Procedure, shortened: as §3

Italian ryegrass [10] = test: Test Example 3: weedkilling efficacy through soil treatment; I: Italian ryegrass; conditions: treatment dosage 315 g/ha
Procedure, shortened: as §3

Indian mallow [11] = test: Test Example 3: weedkilling efficacy through soil treatment; K: Indian mallow; conditions: treatment dosage 315 g/ha
Procedure, shortened: as §3

redroot pigweed [12] = test: Test Example 3: weedkilling efficacy through soil treatment; L: redroot pigweed; conditions: treatment dosage 315 g/ha
Procedure, shortened: as §3

fig-leafed goosefoot [13] = test: Test Example 3: weedkilling efficacy through soil treatment; M: fig-leafed goosefoot; conditions: treatment dosage 315 g/ha
Procedure, shortened: as §3

chickweed [14] = test: Test Example 3: weedkilling efficacy through soil treatment; N: chickweed; conditions: treatment dosage 315 g/ha
Procedure, shortened: as §3

birds-eye speedwell [15] = test: Test Example 3: weedkilling efficacy through soil treatment; p: birds-eye speedwell; conditions: treatment dosage 315 g/ha
Procedure, shortened: as §3

directly sown rice [16] = test: Test Example 3: soil treatment, effect on crop; b: directly sown rice; conditions: treatment dosage 315 g/ha
Procedure, shortened: as §3

corn [17] = test: Test Example 3: soil treatment, effect on crop; c: corn; conditions: treatment dosage 315 g/ha
Procedure, shortened: as §3

soybean [18] = test: Test Example 3: soil treatment, effect on crop; d: soybean; conditions: treatment dosage 315 g/ha
Procedure, shortened: as §3

wheat [19] = test: Test Example 3: soil treatment, effect on crop; e: wheat; conditions: treatment dosage 315 g/ha
Procedure, shortened: as §3

beet [20] = test: Test Example 3: soil treatment, effect on crop; f: beet; conditions: treatment dosage 315 g/ha
Procedure, shortened: as §3

crabgrass [21] = test: Test Example 4: weedkilling efficacy by foliar treatment; D: crabgrass; conditions: treatment dosage 315 g/ha
Procedure, shortened: (§4)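 Seeds are spot-sown into sterilized diluvial soil and covered with about 1.5 cm of soil. After 14 days' greenhouse growth at 25 to 30° C, plants are sprayed on stems and leaves with diluted emulsion at the stated g/ha rate, then scored at 3 weeks.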

green foxtail [22] = test: Test Example 4: weedkilling efficacy by foliar treatment; E: green foxtail; conditions: treatment dosage 315 g/ha
Procedure, shortened: as §4

black-grass [23] = test: Test Example 4: weedkilling efficacy by foliar treatment; H: black-grass; conditions: treatment dosage 315 g/ha
Procedure, shortened: as §4

Italian ryegrass [24] = test: Test Example 4: weedkilling efficacy by foliar treatment; I: Italian ryegrass; conditions: treatment dosage 315 g/ha
Procedure, shortened: as §4

Indian mallow [25] = test: Test Example 4: weedkilling efficacy by foliar treatment; K: Indian mallow; conditions: treatment dosage 315 g/ha
Procedure, shortened: as §4

redroot pigweed [26] = test: Test Example 4: weedkilling efficacy by foliar treatment; L: redroot pigweed; conditions: treatment dosage 315 g/ha
Procedure, shortened: as §4

fig-leafed goosefoot [27] = test: Test Example 4: weedkilling efficacy by foliar treatment; M: fig-leafed goosefoot; conditions: treatment dosage 315 g/ha
Procedure, shortened: as §4

chickweed [28] = test: Test Example 4: weedkilling efficacy by foliar treatment; N: chickweed; conditions: treatment dosage 315 g/ha
Procedure, shortened: as §4

catchweed = test: Test Example 4: weedkilling efficacy by foliar treatment; O: catchweed; conditions: treatment dosage 315 g/ha
Procedure, shortened: as §4

birds-eye speedwell [29] = test: Test Example 4: weedkilling efficacy by foliar treatment; p: birds-eye speedwell; conditions: treatment dosage 315 g/ha
Procedure, shortened: as §4

directly sown rice [30] = test: Test Example 4: foliar treatment, effect on crop; b: directly sown rice; conditions: treatment dosage 315 g/ha
Procedure, shortened: as §4

corn [31] = test: Test Example 4: foliar treatment, effect on crop; c: corn; conditions: treatment dosage 315 g/ha
Procedure, shortened: as §4

soybean [32] = test: Test Example 4: foliar treatment, effect on crop; d: soybean; conditions: treatment dosage 315 g/ha
Procedure, shortened: as §4

wheat [33] = test: Test Example 4: foliar treatment, effect on crop; e: wheat; conditions: treatment dosage 315 g/ha
Procedure, shortened: as §4

beet [34] = test: Test Example 4: foliar treatment, effect on crop; f: beet; conditions: treatment dosage 315 g/ha
Procedure, shortened: as §4

SMILES | A (barnyard grass) weedkilling efficacy grade (barnyard grass [1]) | B (bulrush) weedkilling efficacy grade (bulrush [2]) | C (oval-leafed pondweed) weedkilling efficacy grade (oval-leafed pondweed [3]) | a (transplanted rice) effect on crop grade (transplanted rice) | A (barnyard grass) weedkilling efficacy grade (barnyard grass [4]) | B (bulrush) weedkilling efficacy grade (bulrush [5]) | C (oval-leafed pondweed) weedkilling efficacy grade (oval-leafed pondweed [6]) | D (crabgrass) weedkilling efficacy grade (crabgrass [7]) | E (green foxtail) weedkilling efficacy grade (green foxtail [8]) | G (wild oat) weedkilling efficacy grade (wild oat) | H (black-grass) weedkilling efficacy grade (black-grass [9]) | I (Italian ryegrass) weedkilling efficacy grade (Italian ryegrass [10]) | K (Indian mallow) weedkilling efficacy grade (Indian mallow [11]) | L (redroot pigweed) weedkilling efficacy grade (redroot pigweed [12]) | M (fig-leafed goosefoot) weedkilling efficacy grade (fig-leafed goosefoot [13]) | N (chickweed) weedkilling efficacy grade (chickweed [14]) | P (birds-eye speedwell) weedkilling efficacy grade (birds-eye speedwell [15]) | b (directly sown rice) effect on crop grade (directly sown rice [16]) | c (corn) effect on crop grade (corn [17]) | d (soybean) effect on crop grade (soybean [18]) | other results
COc1nsc(NC(=O)C(C)(C)N2COC(C)=C(c3ccsc3)C2=O)n1 [B-1-04] | 5 (weed kill ratio 90% or more, (practically complete withering)) | 5 (weed kill ratio 90% or more, (practically complete withering)) | 5 (weed kill ratio 90% or more, (practically complete withering)) | 0 (weed kill ratio 5% or less (practically no effect)) | 5 (weed kill ratio 90% or more, (practically complete withering)) | 5 (weed kill ratio 90% or more, (practically complete withering)) | 5 (weed kill ratio 90% or more, (practically complete withering)) | 5 (weed kill ratio 90% or more, (practically complete withering)) | 5 (weed kill ratio 90% or more, (practically complete withering)) | 4 (weed kill ratio 70% or more, less than 90%) | 5 (weed kill ratio 90% or more, (practically complete withering)) | 5 (weed kill ratio 90% or more, (practically complete withering)) | 3 (weed kill ratio 40% or more, less than 70%) | 4 (weed kill ratio 70% or more, less than 90%) | 5 (weed kill ratio 90% or more, (practically complete withering)) | 4 (weed kill ratio 70% or more, less than 90%) | 5 (weed kill ratio 90% or more, (practically complete withering)) | 4 (weed kill ratio 70% or more, less than 90%) | 0 (weed kill ratio 5% or less (practically no effect)) | 0 (weed kill ratio 5% or less (practically no effect)) | e (wheat) effect on crop grade (wheat [19]): 0 (weed kill ratio 5% or less (practically no effect)); f (beet) effect on crop grade (beet [20]): 4 (weed kill ratio 70% or more, less than 90%); D (crabgrass) weedkilling efficacy grade (crabgrass [21]): 4 (weed kill ratio 70% or more, less than 90%); E (green foxtail) weedkilling efficacy grade (green foxtail [22]): 4 (weed kill ratio 70% or more, less than 90%); H (black-grass) weedkilling efficacy grade (black-grass [23]): 5 (weed kill ratio 90% or more, (practically complete withering)); I (Italian ryegrass) weedkilling efficacy grade (Italian ryegrass [24]): 5 (weed kill ratio 90% or more, (practically complete withering)); K (Indian mallow) weedkilling efficacy grade (Indian mallow [25]): 4 (weed kill ratio 70% or more, less than 90%); L (redroot pigweed) weedkilling efficacy grade (redroot pigweed [26]): 4 (weed kill ratio 70% or more, less than 90%); M (fig-leafed goosefoot) weedkilling efficacy grade (fig-leafed goosefoot [27]): 5 (weed kill ratio 90% or more, (practically complete withering)); N (chickweed) weedkilling efficacy grade (chickweed [28]): 3 (weed kill ratio 40% or more, less than 70%); O (catchweed) weedkilling efficacy grade (catchweed): 4 (weed kill ratio 70% or more, less than 90%); P (birds-eye speedwell) weedkilling efficacy grade (birds-eye speedwell [29]): 3 (weed kill ratio 40% or more, less than 70%); b (directly sown rice) effect on crop grade (directly sown rice [30]): 4 (weed kill ratio 70% or more, less than 90%); c (corn) effect on crop grade (corn [31]): 3 (weed kill ratio 40% or more, less than 70%); d (soybean) effect on crop grade (soybean [32]): 0 (weed kill ratio 5% or less (practically no effect)); e (wheat) effect on crop grade (wheat [33]): 0 (weed kill ratio 5% or less (practically no effect)); f (beet) effect on crop grade (beet [34]): 5 (weed kill ratio 90% or more, (practically complete withering))
CSc1nsc(NC(=O)C(C)(C)N2COC(C)=C(c3ccsc3)C2=O)n1 [B-1-05] | 5 (weed kill ratio 90% or more, (practically complete withering)) | 5 (weed kill ratio 90% or more, (practically complete withering)) | 5 (weed kill ratio 90% or more, (practically complete withering)) | 4 (weed kill ratio 70% or more, less than 90%) | 5 (weed kill ratio 90% or more, (practically complete withering)) | 5 (weed kill ratio 90% or more, (practically complete withering)) | 5 (weed kill ratio 90% or more, (practically complete withering)) | 5 (weed kill ratio 90% or more, (practically complete withering)) | 5 (weed kill ratio 90% or more, (practically complete withering)) | 5 (weed kill ratio 90% or more, (practically complete withering)) | 5 (weed kill ratio 90% or more, (practically complete withering)) | 0 (weed kill ratio 5% or less (practically no effect)) | 4 (weed kill ratio 70% or more, less than 90%) | 4 (weed kill ratio 70% or more, less than 90%) | 5 (weed kill ratio 90% or more, (practically complete withering)) | 4 (weed kill ratio 70% or more, less than 90%) | 5 (weed kill ratio 90% or more, (practically complete withering)) | 5 (weed kill ratio 90% or more, (practically complete withering)) | 1 (weed kill ratio 5% or more, less than 20%) | 0 (weed kill ratio 5% or less (practically no effect)) | e (wheat) effect on crop grade (wheat [19]): 0 (weed kill ratio 5% or less (practically no effect)); f (beet) effect on crop grade (beet [20]): 5 (weed kill ratio 90% or more, (practically complete withering)); D (crabgrass) weedkilling efficacy grade (crabgrass [21]): 5 (weed kill ratio 90% or more, (practically complete withering)); E (green foxtail) weedkilling efficacy grade (green foxtail [22]): 5 (weed kill ratio 90% or more, (practically complete withering)); H (black-grass) weedkilling efficacy grade (black-grass [23]): 5 (weed kill ratio 90% or more, (practically complete withering)); I (Italian ryegrass) weedkilling efficacy grade (Italian ryegrass [24]): 4 (weed kill ratio 70% or more, less than 90%); K (Indian mallow) weedkilling efficacy grade (Indian mallow [25]): 5 (weed kill ratio 90% or more, (practically complete withering)); L (redroot pigweed) weedkilling efficacy grade (redroot pigweed [26]): 5 (weed kill ratio 90% or more, (practically complete withering)); M (fig-leafed goosefoot) weedkilling efficacy grade (fig-leafed goosefoot [27]): 5 (weed kill ratio 90% or more, (practically complete withering)); N (chickweed) weedkilling efficacy grade (chickweed [28]): 4 (weed kill ratio 70% or more, less than 90%); O (catchweed) weedkilling efficacy grade (catchweed): 4 (weed kill ratio 70% or more, less than 90%); P (birds-eye speedwell) weedkilling efficacy grade (birds-eye speedwell [29]): 5 (weed kill ratio 90% or more, (practically complete withering)); b (directly sown rice) effect on crop grade (directly sown rice [30]): 4 (weed kill ratio 70% or more, less than 90%); c (corn) effect on crop grade (corn [31]): 2 (weed kill ratio 20% or more, less than 40%); d (soybean) effect on crop grade (soybean [32]): 0 (weed kill ratio 5% or less (practically no effect)); e (wheat) effect on crop grade (wheat [33]): 0 (weed kill ratio 5% or less (practically no effect)); f (beet) effect on crop grade (beet [34]): 4 (weed kill ratio 70% or more, less than 90%)
